The assay deals with T1, SIRT1 (Homo sapiens, UniProt Q96EB6).
T1 sequence (Q96EB6 1-747): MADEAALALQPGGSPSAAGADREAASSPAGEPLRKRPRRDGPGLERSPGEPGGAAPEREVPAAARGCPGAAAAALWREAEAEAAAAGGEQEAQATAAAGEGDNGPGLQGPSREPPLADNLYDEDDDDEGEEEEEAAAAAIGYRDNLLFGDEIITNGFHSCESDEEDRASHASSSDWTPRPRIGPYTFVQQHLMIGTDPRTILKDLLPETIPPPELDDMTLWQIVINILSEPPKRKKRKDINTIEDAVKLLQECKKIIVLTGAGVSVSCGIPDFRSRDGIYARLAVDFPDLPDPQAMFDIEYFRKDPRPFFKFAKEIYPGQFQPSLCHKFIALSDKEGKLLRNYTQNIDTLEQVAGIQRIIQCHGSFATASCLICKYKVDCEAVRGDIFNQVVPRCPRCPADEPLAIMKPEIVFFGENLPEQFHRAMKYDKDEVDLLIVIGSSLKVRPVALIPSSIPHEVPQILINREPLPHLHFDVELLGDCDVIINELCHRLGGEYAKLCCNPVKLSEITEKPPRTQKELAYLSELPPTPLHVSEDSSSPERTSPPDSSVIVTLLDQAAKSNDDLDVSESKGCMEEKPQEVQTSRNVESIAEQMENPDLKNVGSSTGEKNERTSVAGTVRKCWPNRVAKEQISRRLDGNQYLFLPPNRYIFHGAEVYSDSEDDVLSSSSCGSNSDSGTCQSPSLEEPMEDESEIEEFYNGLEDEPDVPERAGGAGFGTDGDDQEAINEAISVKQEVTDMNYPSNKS
The experiment in a line: Trp mass spectrometry assay of SIRT1 activation (Ac-R-H-K-K(Ac)-W-NH2 peptide). The following applies: for Emax: 25 min, read-out: TRP MAX RESP (percent maximum fold activation). In kind it is biochemical. The gist of the method: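 N-terminal His-tagged human SIRT1, expressed in BL21(DE3) and purified, was incubated 25 min with an acetylated Trp peptide and NAD plus test compound at varying concentrations, then quenched with formic acid. OAADPR or deacetylated peptide was quantified by mass spectrometry versus compound-free control; EC1.5 is the concentration giving 50% activity increase, with percent maximum activation.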

[1] abbreviates: Trp peptide 0.5 μM, 120 μM βNAD+, 10 nM SIRT1, 25 min at 25° C., relative to control (100%).
Where [2] appears, read: Trp peptide 0.5 μM, 120 μM βNAD+, 10 nM SIRT1, 25 min at 25° C.

Like-named read-outs stand apart in the source and are kept apart here.

As for `CN(CC(F)(F)F)C(=O)c1ccc2c(n1)N(C(=O)Nc1ccccn1)[C@H]1CCN2C1` [Example 254, (4S)—N7-methyl-N5-(pyridin-2-yl)-N7-(2,2,2-trifluoroethyl)-3,4-dihydro-1,4-methanopyrido[2,3-b][1,4]diazepine-5,7(2H)-dicarboxamide], the Emax under setting [1] was above 150%. Further, the “TRP Activity (EC1.5, concentration of test compound that results in 150% activation of SIRT1)” value under setting [2] is “B (EC1.5 1-25 μM)”.
As for `Cc1nc(NC(=O)N2c3nc(C(=O)NC4CC4)ccc3N3CC[C@H]2C3)co1` [Example 255, (4S)—N7-cyclopropyl-N5-(2-methyloxazol-4-yl)-3,4-dihydro-1,4-methanopyrido[2,3-b][1,4]diazepine-5,7(2H)-dicarboxamide], under setting [1], the Emax was above 150%. Further, the “TRP Activity (EC1.5, concentration of test compound that results in 150% activation of SIRT1)” value under setting [2] was “B (EC1.5 1-25 μM)”.
For `O=C(NCc1nnn[nH]1)c1ccc2c(n1)N(C(=O)Nc1cc(OC[C@H](O)CO)ccn1)[C@H]1CCN2C1` [Example 256, (4S)—N7-((1H-tetrazol-5-yl)methyl)-N5-(4-((R)-2,3-dihydroxypropoxy)pyridin-2-yl)-3,4-dihydro-1,4-methanopyrido[2,3-b][1,4]diazepine-5,7(2H)-dicarboxamide], under setting [1], the Emax was above 150%. Under setting [2], the “TRP Activity (EC1.5, concentration of test compound that results in 150% activation of SIRT1)” value is reported as “B (EC1.5 1-25 μM)”.
On to `NC(=O)c1ccc2c(n1)N(C(=O)Nc1ccccn1)[C@H]1CCN2C1` [Example 257, (4S)—N5-(pyridin-2-yl)-3,4-dihydro-1,4-methanopyrido[2,3-b][1,4]diazepine-5,7(2H)-dicarboxamide], for which the Emax under setting [1] is above 150%. For the same compound, the “TRP Activity (EC1.5, concentration of test compound that results in 150% activation of SIRT1)” value under setting [2] was “B (EC1.5 1-25 μM)”.
`CN(C)C(=O)c1ccnc(NC(=O)N2c3nc(C(=O)NCC(F)(F)F)ccc3N3CC[C@H]2C3)c1` [Example 259, (4S)—N5-(4-(dimethylcarbamoyl)pyridin-2-yl)-N7-(2,2,2-trifluoroethyl)-3,4-dihydro-1,4-methanopyrido[2,3-b][1,4]diazepine-5,7(2H)-dicarboxamide]: the Emax is above 150%. The “TRP Activity (EC1.5, concentration of test compound that results in 150% activation of SIRT1)” value under setting [2] is recorded as “B (EC1.5 1-25 μM)”.
`O=C(NCC(F)(F)F)c1cc(O)c2c(n1)N(C(=O)Nc1ccccn1)[C@H]1CCN2C1` [Example 261, (4S)-9-hydroxy-N5-(pyridin-2-yl)-N7-(2,2,2-trifluoroethyl)-3,4-dihydro-1,4-methanopyrido[2,3-b][1,4]diazepine-5,7(2H)-dicarboxamide]: the Emax under setting [1] is above 150%. Under setting [2], the “TRP Activity (EC1.5, concentration of test compound that results in 150% activation of SIRT1)” value is recorded as “A (EC1.5<1 μM)”.
Taken in the same sequence, the figures for `C[C@@H](NC(=O)c1ccc2c(n1)N(C(=O)Nc1cc(C(=O)N[C@H]3CCOC3)ccn1)[C@H]1CCN2C1)C(F)(F)F` [Example 264, (4S)—N5-(4-(((S)-tetrahydrofuran-3-yl)carbamoyl)pyridin-2-yl)-N7-((R)-1,1,1-trifluoropropan-2-yl)-3,4-dihydro-1,4-methanopyrido[2,3-b][1,4]diazepine-5,7(2H)-dicarboxamide] were below 150% and “C (EC1.5>25 μM)”.
Taken in the same sequence, the figures for `C[C@@H](NC(=O)c1ccc2c(n1)N(C(=O)Nc1cc(OCC(=O)O)ccn1)[C@H]1CCN2C1)C(F)(F)F` [Example 265, 2-((2-((4S)-7-(((R)-1,1,1-trifluoropropan-2-yl)carbamoyl)-2,3,4,5-tetrahydro-1,4-methanopyrido[2,3-b][1,4]diazepine-5-carboxamido)pyridin-4-yl)oxy)acetic acid] were above 150% and “B (EC1.5 1-25 μM)”.
In the case of `C[C@@H](NC(=O)c1ccc2c(n1)N(C(=O)Nc1cc(OCCCO)ccn1)[C@H]1CCN2C1)C(F)(F)F` [Example 266, (4S)—N5-(4-(3-hydroxypropoxy)pyridin-2-yl)-N7-((R)-1,1,1-trifluoropropan-2-yl)-3,4-dihydro-1,4-methanopyrido[2,3-b][1,4]diazepine-5,7(2H)-dicarboxamide], the Emax under setting [1] is above 150%. Under setting [2], the “TRP Activity (EC1.5, concentration of test compound that results in 150% activation of SIRT1)” value is “A (EC1.5<1 μM)”.
Consider `O=C(O)c1ccnc(NC(=O)N2c3nc(C(=O)NCC(F)(F)F)ccc3N3CC[C@H]2C3)c1` [Example 267, 2-((4S)-7-((2,2,2-trifluoroethyl)carbamoyl)-2,3,4,5-tetrahydro-1,4-methanopyrido[2,3-b][1,4]diazepine-5-carboxamido)isonicotinic acid], for which the Emax under setting [1] was above 150%. Also, the “TRP Activity (EC1.5, concentration of test compound that results in 150% activation of SIRT1)” value under setting [2] is “B (EC1.5 1-25 μM)”.
For the compound `C[C@@H](NC(=O)c1ccc2c(n1)N(C(=O)Nc1cc(OCCN(C)C)ccn1)[C@H]1CCN2C1)C(F)(F)F` [Example 268, (4S)—N5-(4-(2-(dimethylamino)ethoxy)pyridin-2-yl)-N7-((R)-1,1,1-trifluoropropan-2-yl)-3,4-dihydro-1,4-methanopyrido[2,3-b][1,4]diazepine-5,7(2H)-dicarboxamide], the Emax under setting [1] is above 150%. For the same compound, the “TRP Activity (EC1.5, concentration of test compound that results in 150% activation of SIRT1)” value under setting [2] was “B (EC1.5 1-25 μM)”.
Regarding `Cc1nc(NC(=O)N2c3nc(C(=O)N[C@H](C)C(F)(F)F)ccc3N3CC[C@H]2C3)ccc1F` [Example 269, (4S)—N5-(5-fluoro-6-methylpyridin-2-yl)-N7-((R)-1,1,1-trifluoropropan-2-yl)-3,4-dihydro-1,4-methanopyrido[2,3-b][1,4]diazepine-5,7(2H)-dicarboxamide], under setting [1], the Emax is above 150%. In addition, under setting [2], the “TRP Activity (EC1.5, concentration of test compound that results in 150% activation of SIRT1)” value was “A (EC1.5<1 μM)”.
Turning to `O=C(NCC(F)(F)F)c1ccc2c(n1)N(C(=O)Nc1cccc[n+]1[O-])[C@H]1CC[N+]2([O-])C1` [Example 275, (4S)-5-((1-oxidopyridin-2-yl)carbamoyl)-7-((2,2,2-trifluoroethyl)carbamoyl)-2,3,4,5-tetrahydro-1H-1,4-methanopyrido[2,3-b][1, 4]diazepine 1-oxide], the Emax under setting [1] was above 150%. The “TRP Activity (EC1.5, concentration of test compound that results in 150% activation of SIRT1)” value under setting [2] is “C (EC1.5>25 μM)”.
For `C[C@@H](NC(=O)c1ccc2c(n1)N(C(=O)Cc1ccccn1)[C@H]1CCN2C1)C(F)(F)F` [Example 276, (4S)-5-(2-(pyridin-2-yl)acetyl)-N—((R)-1,1,1-trifluoropropan-2-yl)-2,3,4,5-tetrahydro-1,4-methanopyrido[2,3-b][1,4]diazepine-7-carboxamide] the same measures were below 150% and “C (EC1.5>25 μM)”.
Regarding `O=C(Nc1ccc(Cl)cn1)N1c2nc(S(=O)(=O)NCC(F)(F)F)ccc2N2CC[C@H]1C2` [Example 277, (4S)—N-(5-chloropyridin-2-yl)-7-(N-(2,2,2-trifluoroethyl)sulfamoyl)-3,4-dihydro-1,4-methanopyrido[2,3-b][1,4]diazepine-5(2H)-carboxamide], the Emax was below 150%. Moreover, under setting [2], the “TRP Activity (EC1.5, concentration of test compound that results in 150% activation of SIRT1)” value is given as “C (EC1.5>25 μM)”.
For the compound `O=C(OCC(F)(F)F)c1ccc2c(n1)N(C(=O)Nc1ccccn1)[C@H]1CCN2C1` [Example 278, (4S)-2,2,2-trifluoroethyl 5-(pyridin-2-ylcarbamoyl)-2,3,4,5-tetrahydro-1,4-methanopyrido[2,3-b][1,4]diazepine-7-carboxylate], the Emax under setting [1] was above 150%. The “TRP Activity (EC1.5, concentration of test compound that results in 150% activation of SIRT1)” value under setting [2] was “B (EC1.5 1-25 μM)”.
With `O=C(NCC(F)(F)F)c1nc2c(cc1Cl)N1CC[C@@H](C1)N2C(=O)Nc1ccccn1` [Example 279, (4S)-8-chloro-N5-(pyridin-2-yl)-N7-(2,2,2-trifluoroethyl)-3,4-dihydro-1,4-methanopyrido[2,3-b][1,4]diazepine-5,7(2H)-dicarboxamide], the Emax under setting [1] was above 150%. Under setting [2], the “TRP Activity (EC1.5, concentration of test compound that results in 150% activation of SIRT1)” value is on record as “A (EC1.5<1 μM)”.
`C[C@@H](NC(=O)c1nc2c(cc1Cl)N1CC[C@@H](C1)N2C(=O)Nc1ccccn1)C(F)(F)F` [Example 280, (4S)-8-chloro-N5-(pyridin-2-yl)-N7-((R)-1,1,1-trifluoropropan-2-yl)-3,4-dihydro-1,4-methanopyrido[2,3-b][1,4]diazepine-5,7(2H)-dicarboxamide]: under setting [1], the Emax was above 150%. Moreover, the “TRP Activity (EC1.5, concentration of test compound that results in 150% activation of SIRT1)” value under setting [2] is listed as “A (EC1.5<1 μM)”.

The values are drawn from patent US10072011B2, “Substituted bridged urea analogs as sirtuin modulators” (GlaxoSmithKline Intellectual Property (No.2) Limited, priority 2014, dated 2018).
